Experimental data published in ChEMBL document CHEMBL2375219, “Discovery of new potential hits of Plasmodium falciparum enoyl-ACP reductase through ligand- and structure-based drug design approaches” (Bioorg Med Chem Lett, 2013).

Assay: Inhibition of Plasmodium falciparum enoyl-ACP reductase expressed in Escherichia coli BL21(DE3) assessed as inhibition of crotonyl-CoA reduction to butyryl-CoA by UV-Vis spectrophotometric analysis

Point of comparison: `Cc1cccc(N2C(=O)/C(=C/c3ccc(O)c(Br)c3)SC2=S)c1`, pIC50 5.009. Against it:
- O=C(O)c1ccc(/C=C2\SC(=S)N(c3ccccc3)C2=O)cc1 — within 0.2 log units, 5.041
- COc1cccc(N2C(=O)/C(=C/c3ccc(C(=O)O)cc3)SC2=S)c1 — the same, 5.009
- CCOc1cc(/C=C2\SC(=S)N(c3ccccc3C)C2=O)ccc1O — within 0.2 log units, 5.022
- O=C(O)c1ccccc1/C=C1\SC(=S)N(c2cccc(Cl)c2)C1=O — within 0.2 log units, 4.921
- O=C(O)c1ccc(/C=C2\SC(=S)N(c3ccc(O)cc3)C2=O)cc1 — within 0.2 log units, 5.056
- COc1ccc(/C=C2\SC(=S)N(c3cccc([N+](=O)[O-])c3)C2=O)cc1Br — lower, 4.627
- CCOc1ccc(N2C(=O)/C(=C/c3ccc(O)cc3)SC2=S)cc1 — within 0.2 log units, 5.081
- O=C1/C(=C/c2ccc(O)cc2)SC(=S)N1c1ccc(Cl)cc1 — lower, 4.676
- O=C1/C(=C/c2cc(O)c(O)c(Br)c2)SC(=S)N1c1cccc(C(F)(F)F)c1 — within 0.2 log units, 5.004
- COC(=O)c1ccc(/C=C2\SC(=S)N(c3cccc(O)c3)C2=O)cc1 — within 0.2 log units, 5.081
- O=C1/C(=C/c2ccc(O)c([N+](=O)[O-])c2)SC(=S)N1c1cccc2ccccc12 — lower, 4.535
- COc1ccc(/C=C2\SC(=S)N(c3cccc(OC)c3)C2=O)cc1 — within 0.2 log units, 4.879
- O=C1/C(=C/c2ccc(O)cc2)SC(=S)N1c1ccc(Br)cc1 — within 0.2 log units, 4.955
- COC(=O)c1ccc(N2C(=O)/C(=C/c3cccc(OC)c3)SC2=S)cc1 — lower, 4.565
- O=C1/C(=C/c2ccc(O)cc2)SC(=S)N1c1cccc(F)c1 — within 0.2 log units, 5.066
- O=C1/C(=C/c2cccc(O)c2)SC(=S)N1c1ccccc1 — within 0.2 log units, 5.066
- O=C1/C(=C/c2ccc(O)cc2)SC(=S)N1c1ccccc1 — within 0.2 log units, 5.032
- COc1ccc(N2C(=O)/C(=C/c3ccc(OC)c(O)c3)SC2=S)cc1 — within 0.2 log units, 5.004
- O=C(O)c1ccccc1/C=C1\SC(=S)N(c2ccc(F)cc2)C1=O — lower, 4.573
- O=C(O)c1ccc(/C=C2\SC(=S)N(c3cccc(Cl)c3)C2=O)cc1 — within 0.2 log units, 5.06
- O=C1/C(=C/c2ccc(Cl)c([N+](=O)[O-])c2)SC(=S)N1c1cccc(Cl)c1 — lower, 4.73
- COc1ccc(/C=C2\SC(=S)N(c3cccc(C(F)(F)F)c3)C2=O)cc1 — within 0.2 log units, 5.187
- O=C1/C(=C/c2ccc([N+](=O)[O-])cc2)SC(=S)N1c1cccc(C(F)(F)F)c1 — within 0.2 log units, 4.896
- O=C(O)c1ccc(/C=C2\SC(=S)N(c3ccccc3F)C2=O)cc1 — lower, 4.79
- COc1cc(/C=C2\SC(=S)N(c3ccc([N+](=O)[O-])cc3)C2=O)cc(Cl)c1O — within 0.2 log units, 5.004
- O=C1/C(=C/c2ccc(O)c(O)c2)SC(=S)N1c1ccc(Cl)cc1 — within 0.2 log units, 5.102
- O=C1/C(=C/c2ccc(O)c(O)c2)SC(=S)N1c1cccc(Cl)c1 — higher, 6.097
- Cc1ccc(N2C(=O)/C(=C/c3ccc(O)c(O)c3)SC2=S)cc1C — higher, 6.602
- CCOC(=O)c1ccc(/C=C2\SC(=S)N(c3cccc(Cl)c3)C2=O)cc1 — lower, 4.724
- O=C1/C(=C/c2ccc(O)cc2)SC(=S)N1c1ccc([N+](=O)[O-])cc1 — higher, 5.387
- CCOc1cc(/C=C2\SC(=S)N(c3ccc(Br)cc3)C2=O)ccc1O — within 0.2 log units, 4.857
- COc1cccc(N2C(=O)/C(=C/c3cccc(O)c3)SC2=S)c1 — within 0.2 log units, 5.041
- O=C1/C(=C/c2ccc([N+](=O)[O-])cc2)SC(=S)N1c1ccc(F)cc1 — within 0.2 log units, 4.833
- Cc1ccc(N2C(=O)/C(=C/c3ccc(O)c(O)c3)SC2=S)c(C)c1 — higher, 6.301
- COc1cccc(N2C(=O)/C(=C/c3ccc(O)cc3)SC2=S)c1 — within 0.2 log units, 4.91
